ChEMBL document CHEMBL1201862, “PubChem BioAssay data set” (2004)
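Where inhibition never reached the appropriate level, the endpoint shown equals the highest concentration tested. Otherwise, values were interpolated linearly from a five-concentration, 48-hour dose response in 96-well plates. GI50 marks 50% less growth.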 Activity calls are given as the source filed them. Cut-off read from the data, not from the text of the source: active = GI50 up to about 1.1 µM and inactive = higher. Where a SMILES comes first, the peptide text is derived from it. Square brackets hold non-standard residues; d marks the D form. Peptide text beside a SMILES is read from it. The star is where a group is joined. * marks the point of attachment. Boc = CC(C)(C)OC(=O)*; OBn = c1ccc(CO*)cc1

How the values were obtained:
Assay in all cases: NCI-60 cell line screen, 48 h
ACHN = system: ACHN
OVCAR-4 = system: OVCAR-4
SK-MEL-2 = system: SK-MEL-2
IGROV-1 = system: IGROV-1
786-0 = system: 786-0
HCC 2998 = system: HCC 2998
COLO 205 = system: COLO 205
SNB-75 = system: SNB-75
SF-539 = system: SF-539
HT-29 = system: HT-29
KM12 = system: KM12
OVCAR-8 = system: OVCAR-8
MDA-MB-231 = system: MDA-MB-231
UACC-257 = system: UACC-257
K562 = system: K562
Malme-3M = system: Malme-3M
MOLT-4 = system: MOLT-4
Hs-578T = system: Hs-578T
A498 = system: A498

Measured: GI50

CC1=CC(=O)/C(=C/Nc2nc(-c3cccc([N+](=O)[O-])c3)cs2)C(=O)O1
inactive: ACHN 46.2 µM | OVCAR-4 > 100 µM | SK-MEL-2 > 100 µM | IGROV-1 38.4 µM | 786-0 30.8 µM | HCC 2998 31.9 µM | COLO 205 85.7 µM | SNB-75 35.9 µM | SF-539 69 µM | HT-29 89.9 µM | KM12 47.2 µM | OVCAR-8 > 100 µM | MDA-MB-231 57.4 µM | UACC-257 > 100 µM

C[C@@H](NC(=O)CNC(=O)OC(C)(C)C)C(=O)N[C@@H](Cc1ccccc1)C(=O)OCc1ccccc1 (Boc-Gly-[dA]-Phe-OBn)
inactive: ACHN 57.9 µM | OVCAR-4 > 100 µM | SK-MEL-2 26.7 µM | IGROV-1 67.9 µM | 786-0 84.7 µM | K562 23.1 µM | COLO 205 18.2 µM | SNB-75 43.9 µM | Malme-3M 16.2 µM | SF-539 > 100 µM | MOLT-4 15 µM | HT-29 90.4 µM | KM12 > 100 µM | OVCAR-8 > 100 µM | Hs-578T 22.3 µM | MDA-MB-231 37.1 µM | UACC-257 33.7 µM

O=C(O)C1CCCN(CCc2c[nH]c3ccccc23)C1 (stereo unspecified)
inactive: ACHN > 100 µM | OVCAR-4 > 100 µM | SK-MEL-2 > 100 µM | IGROV-1 > 100 µM | 786-0 > 100 µM | HCC 2998 > 100 µM | K562 > 100 µM | COLO 205 > 100 µM | SNB-75 > 100 µM | Malme-3M > 100 µM | SF-539 > 100 µM | MOLT-4 > 100 µM | HT-29 > 100 µM | KM12 > 100 µM | OVCAR-8 > 100 µM | A498 > 100 µM | MDA-MB-231 > 100 µM | UACC-257 > 100 µM

Cc1cc(C)nc(NS(=O)(=O)c2ccc(NC(=O)c3c4ccccc4nc4ccccc34)cc2)n1
inactive: ACHN 84.7 µM | OVCAR-4 > 100 µM | SK-MEL-2 > 100 µM | IGROV-1 31.2 µM | 786-0 49 µM | HCC 2998 > 100 µM | K562 > 100 µM | COLO 205 75.2 µM | SNB-75 > 100 µM | Malme-3M 17.4 µM | SF-539 > 100 µM | MOLT-4 > 100 µM | HT-29 50.8 µM | KM12 47 µM | OVCAR-8 47.9 µM | A498 > 100 µM | MDA-MB-231 > 100 µM | UACC-257 > 100 µM

CC(NC(=O)C(NC(=O)OC(C)(C)C)C(C)C)C(=O)NCC(=O)O (stereo not drawn) (Boc-Val-Ala-Gly-OH; configuration not given here)
inactive: ACHN > 100 µM | SK-MEL-2 > 100 µM | IGROV-1 > 100 µM | 786-0 > 100 µM | HCC 2998 > 100 µM | K562 > 100 µM | COLO 205 > 100 µM | Malme-3M > 100 µM | SF-539 > 100 µM | MOLT-4 > 100 µM | HT-29 > 100 µM | KM12 > 100 µM | OVCAR-8 > 100 µM | Hs-578T > 100 µM | UACC-257 > 100 µM

C(#Cc1ccccc1)SC1=C(c2ccccc2)S/C(=C(\SC#Cc2ccccc2)c2ccccc2)S1
inactive: ACHN > 100 µM | OVCAR-4 > 100 µM | IGROV-1 > 100 µM | 786-0 > 100 µM | HCC 2998 > 100 µM | K562 > 100 µM | COLO 205 > 100 µM | SNB-75 > 100 µM | SF-539 > 100 µM | MOLT-4 > 100 µM | HT-29 > 100 µM | KM12 > 100 µM | OVCAR-8 > 100 µM | Hs-578T > 100 µM | MDA-MB-231 > 100 µM | UACC-257 > 100 µM

CCSc1n/c(=C\c2ccco2)c2nncn12
inactive: ACHN > 100 µM | SK-MEL-2 > 100 µM | IGROV-1 > 100 µM | 786-0 > 100 µM | K562 > 100 µM | COLO 205 > 100 µM | SNB-75 > 100 µM | Malme-3M > 100 µM | MOLT-4 > 100 µM | HT-29 > 100 µM | KM12 > 100 µM | OVCAR-8 > 100 µM | Hs-578T > 100 µM | MDA-MB-231 > 100 µM

C1CCCCC2(CCCCCCCCC3(CCC1)SCCS3)SCCS2
inactive: ACHN > 100 µM | OVCAR-4 > 100 µM | SK-MEL-2 > 100 µM | IGROV-1 > 100 µM | 786-0 > 100 µM | HCC 2998 > 100 µM | K562 > 100 µM | COLO 205 > 100 µM | SNB-75 > 100 µM | Malme-3M > 100 µM | SF-539 > 100 µM | HT-29 > 100 µM | KM12 > 100 µM | OVCAR-8 > 100 µM | Hs-578T > 100 µM | A498 > 100 µM | UACC-257 > 100 µM

CC1=NN2C(=O)CC(=O)N=C2S1
inactive: ACHN > 100 µM | OVCAR-4 > 100 µM | SK-MEL-2 > 100 µM | IGROV-1 > 100 µM | 786-0 > 100 µM | K562 > 100 µM | COLO 205 > 100 µM | SNB-75 > 100 µM | Malme-3M > 100 µM | SF-539 > 100 µM | MOLT-4 > 100 µM | HT-29 > 100 µM | KM12 > 100 µM | OVCAR-8 > 100 µM | Hs-578T > 100 µM | MDA-MB-231 > 100 µM | UACC-257 > 100 µM
